Data on two molecules can be found in patent publication US20220409733A1, “COMPOSITIONS AND METHODS FOR TREATING CANCER” (priority 2019, published 2022).

One assay relates to A2780 cells. Nature of the assay: CCK-8 assay of cDDP cytotoxicity in parental A2780 cells. The note with it: parental A2780 cell line, 1 h cDDP exposure. Type of assay: cell-based. The method, then:
(§1) FIG. 1B: CCK-8 assay of A2780, A2780-CP and A2780-CP cells pre-incubated for 24 h with APP antisense oligonucleotides (A2780ONS) during a 1 h exposure to increasing concentrations of cDDP.
For orientation: Formazan colour is commonly taken as a measure of viable cells.

Another assay concerns A2780-CP cells. In words: CCK-8 assay of cDDP cytotoxicity in Pt resistant A2780-CP cells. Type of assay: cell-based. The note with it: 1 h cDDP exposure. The method, then: as §1
For the next assay, the target named is APP (Homo sapiens, UniProt P05067). The note with it: in vivo and in vitro; cited from earlier work.

Where two headings read alike, the source gives them in different places.

Chain of APP (P05067 18-770): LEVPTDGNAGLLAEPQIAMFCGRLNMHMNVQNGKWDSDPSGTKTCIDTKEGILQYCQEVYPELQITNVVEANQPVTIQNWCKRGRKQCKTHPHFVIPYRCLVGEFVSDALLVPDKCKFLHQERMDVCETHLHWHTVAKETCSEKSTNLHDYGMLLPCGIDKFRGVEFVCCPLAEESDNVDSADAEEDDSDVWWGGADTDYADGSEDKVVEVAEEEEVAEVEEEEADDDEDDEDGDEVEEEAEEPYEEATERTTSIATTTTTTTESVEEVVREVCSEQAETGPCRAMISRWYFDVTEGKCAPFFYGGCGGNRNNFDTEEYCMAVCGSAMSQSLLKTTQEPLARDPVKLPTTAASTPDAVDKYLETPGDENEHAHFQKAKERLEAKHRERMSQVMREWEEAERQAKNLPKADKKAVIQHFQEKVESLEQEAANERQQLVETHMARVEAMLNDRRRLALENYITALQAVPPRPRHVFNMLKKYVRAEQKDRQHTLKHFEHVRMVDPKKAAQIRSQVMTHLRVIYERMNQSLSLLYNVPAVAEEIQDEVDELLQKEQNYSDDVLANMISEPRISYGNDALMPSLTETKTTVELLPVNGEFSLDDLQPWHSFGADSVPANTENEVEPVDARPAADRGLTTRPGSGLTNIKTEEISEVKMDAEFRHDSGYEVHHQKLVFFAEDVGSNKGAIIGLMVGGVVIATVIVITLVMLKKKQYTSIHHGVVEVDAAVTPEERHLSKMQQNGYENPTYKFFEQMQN

For orientation: IC50 means the point on the concentration scale where inhibition reaches its midpoint. For `[NH2][Pt]([NH2])([Cl])[Cl]` [cDDP, Cisplatin], the IC50 in the assay on A2780 cells worked out at 10.2 ± 0.32 µM; with A2780-CP cells (A2780-CP cells pre-treated overnight with 25 μM APP ONS, read-out: IC50 of cDDP following APP downregulation), 12.1 ± 0.3 µM; in the assay on A2780-CP cells (A2780-CP cells, no APP downregulation, read-out: IC50 of cDDP) it was 63.2 ± 1.9 µM.
On to “-cdkc pagtyvsehc tntslrvcss cpvgtftr- (SEQ ID NO:1) [DR6 peptide]”, for which the “Binding to APP” value at APP is recorded as “high affinity”.
